Test results from PubChem BioAssay (NCI).
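Dose response: 5 concentrations. Exposure: 48 h. Format: 96-well plates. Endpoint: linear interpolation; highest concentration if not reached. TGI: total growth inhibition.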

Legend:
Experiment in all cases: NCI tumour cell line growth inhibition, 48 h
PC-3 prostate = test system: PC-3 prostate
OVCAR-4 ovarian = test system: OVCAR-4 ovarian
HCT-15 colon = test system: HCT-15 colon
MDA-MB-435 = test system: MDA-MB-435
SK-MEL-5 melanoma = test system: SK-MEL-5 melanoma
HCT-116 colon = test system: HCT-116 colon
SF-295 CNS = test system: SF-295 CNS
MDA-MB-231 breast = test system: MDA-MB-231 breast
HOP-62 NSCLC = test system: HOP-62 NSCLC
NCI-H522 lung = test system: NCI-H522 lung
MALME-3M melanoma = test system: MALME-3M melanoma
SNB-75 CNS = test system: SNB-75 CNS
SK-OV-3 ovarian = test system: SK-OV-3 ovarian
SN12C renal = test system: SN12C renal
A498 renal = test system: A498 renal
MOLT-4 leukemia = test system: MOLT-4 leukemia
OVCAR-5 ovarian = test system: OVCAR-5 ovarian
NCI-H460 lung = test system: NCI-H460 lung
SK-MEL-2 melanoma = test system: SK-MEL-2 melanoma
M14 melanoma = test system: M14 melanoma
ACHN renal = test system: ACHN renal
IGROV1 ovarian = test system: IGROV1 ovarian
CAKI-1 renal = test system: CAKI-1 renal
CCRF-CEM leukemia = test system: CCRF-CEM leukemia
T-47D breast = test system: T-47D breast
K-562 leukemia = test system: K-562 leukemia
OVCAR-8 ovarian = test system: OVCAR-8 ovarian
NCI-H226 lung = test system: NCI-H226 lung
OVCAR-3 ovarian = test system: OVCAR-3 ovarian
COLO 205 colon = test system: COLO 205 colon
LOX IMVI melanoma = test system: LOX IMVI melanoma
RXF 393 renal = test system: RXF 393 renal
SK-MEL-28 melanoma = test system: SK-MEL-28 melanoma
SF-268 CNS = test system: SF-268 CNS
MDA-N = test system: MDA-N
EKVX NSCLC = test system: EKVX NSCLC
HCC-2998 colon = test system: HCC-2998 colon
NCI/ADR-RES ovarian = test system: NCI/ADR-RES ovarian
HS 578T breast = test system: HS 578T breast
786-0 renal = test system: 786-0 renal
MCF7 breast = test system: MCF7 breast
SNB-19 CNS = test system: SNB-19 CNS
HT29 colon = test system: HT29 colon
KM12 colon = test system: KM12 colon
SW-620 colon = test system: SW-620 colon
DU-145 prostate = test system: DU-145 prostate
U251 CNS = test system: U251 CNS
A549 NSCLC = test system: A549 NSCLC
SR leukemia = test system: SR leukemia
SF-539 CNS = test system: SF-539 CNS
TK-10 renal = test system: TK-10 renal
RPMI-8226 leukemia = test system: RPMI-8226 leukemia
NCI-H23 lung = test system: NCI-H23 lung
HL-60(TB) leukemia = test system: HL-60(TB) leukemia
HOP-92 NSCLC = test system: HOP-92 NSCLC
UACC-257 melanoma = test system: UACC-257 melanoma
UACC-62 melanoma = test system: UACC-62 melanoma

## O=C(Nc1ccc(Cl)cc1)c1cc2c(cc1Cl)Sc1nccn1S2(=O)=O
PC-3 prostate
  TGI: > 100 µM
OVCAR-4 ovarian
  TGI: > 100 µM
HCT-15 colon
  TGI: > 100 µM
MDA-MB-435
  TGI: > 100 µM
SK-MEL-5 melanoma
  TGI: > 100 µM
HCT-116 colon
  TGI: > 100 µM
SF-295 CNS
  TGI: > 100 µM
MDA-MB-231 breast
  TGI: > 100 µM
HOP-62 NSCLC
  TGI: > 100 µM
NCI-H522 lung
  TGI: > 100 µM
MALME-3M melanoma
  TGI: > 100 µM
SNB-75 CNS
  TGI: 25.2 µM
SK-OV-3 ovarian
  TGI: > 100 µM
SN12C renal
  TGI: > 100 µM
A498 renal
  TGI: > 100 µM
MOLT-4 leukemia
  TGI: > 100 µM
OVCAR-5 ovarian
  TGI: > 100 µM
NCI-H460 lung
  TGI: > 100 µM
SK-MEL-2 melanoma
  TGI: > 100 µM
M14 melanoma
  TGI: > 100 µM
ACHN renal
  TGI: > 100 µM
IGROV1 ovarian
  TGI: > 100 µM
CAKI-1 renal
  TGI: > 100 µM
CCRF-CEM leukemia
  TGI: > 100 µM
T-47D breast
  TGI: > 100 µM
K-562 leukemia
  TGI: > 100 µM
OVCAR-8 ovarian
  TGI: > 100 µM
NCI-H226 lung
  TGI: > 100 µM
OVCAR-3 ovarian
  TGI: > 100 µM
COLO 205 colon
  TGI: > 100 µM
LOX IMVI melanoma
  TGI: > 100 µM
RXF 393 renal
  TGI: > 100 µM
SK-MEL-28 melanoma
  TGI: > 100 µM
SF-268 CNS
  TGI: > 100 µM
MDA-N
  TGI: > 100 µM
EKVX NSCLC
  TGI: > 100 µM
HCC-2998 colon
  TGI: > 100 µM
NCI/ADR-RES ovarian
  TGI: > 100 µM
HS 578T breast
  TGI: 97.4 µM
786-0 renal
  TGI: > 100 µM
MCF7 breast
  TGI: > 100 µM
SNB-19 CNS
  TGI: > 100 µM
HT29 colon
  TGI: > 100 µM
KM12 colon
  TGI: > 100 µM
SW-620 colon
  TGI: > 100 µM
DU-145 prostate
  TGI: > 100 µM
U251 CNS
  TGI: 39.6 µM
A549 NSCLC
  TGI: > 100 µM
SR leukemia
  TGI: > 100 µM
SF-539 CNS
  TGI: > 100 µM

## Cc1cc(C)n(C(=O)CSc2nc3ccc(I)cc3c(=O)n2Cc2ccccc2)n1
PC-3 prostate
  TGI: 63.7 µM
OVCAR-4 ovarian
  TGI: > 100 µM
HCT-15 colon
  TGI: > 100 µM
TK-10 renal
  TGI: > 100 µM
MDA-MB-435
  TGI: > 100 µM
SK-MEL-5 melanoma
  TGI: > 100 µM
HCT-116 colon
  TGI: > 100 µM
SF-295 CNS
  TGI: > 100 µM
MDA-MB-231 breast
  TGI: 66.3 µM
RPMI-8226 leukemia
  TGI: > 100 µM
HOP-62 NSCLC
  TGI: 70.3 µM
NCI-H23 lung
  TGI: > 100 µM
NCI-H522 lung
  TGI: 62.1 µM
SNB-75 CNS
  TGI: 63.4 µM
SK-OV-3 ovarian
  TGI: > 100 µM
SN12C renal
  TGI: > 100 µM
A498 renal
  TGI: 63.4 µM
MOLT-4 leukemia
  TGI: > 100 µM
OVCAR-5 ovarian
  TGI: > 100 µM
NCI-H460 lung
  TGI: > 100 µM
SK-MEL-2 melanoma
  TGI: > 100 µM
M14 melanoma
  TGI: > 100 µM
ACHN renal
  TGI: > 100 µM
IGROV1 ovarian
  TGI: 78.8 µM
CAKI-1 renal
  TGI: 22.2 µM
CCRF-CEM leukemia
  TGI: > 100 µM
T-47D breast
  TGI: > 100 µM
K-562 leukemia
  TGI: > 100 µM
OVCAR-8 ovarian
  TGI: 70.3 µM
NCI-H226 lung
  TGI: > 100 µM
OVCAR-3 ovarian
  TGI: > 100 µM
COLO 205 colon
  TGI: > 100 µM
HL-60(TB) leukemia
  TGI: > 100 µM
LOX IMVI melanoma
  TGI: > 100 µM
RXF 393 renal
  TGI: 62.4 µM
SK-MEL-28 melanoma
  TGI: > 100 µM
SF-268 CNS
  TGI: 71 µM
MDA-N
  TGI: > 100 µM
EKVX NSCLC
  TGI: > 100 µM
HCC-2998 colon
  TGI: > 100 µM
NCI/ADR-RES ovarian
  TGI: > 100 µM
HOP-92 NSCLC
  TGI: 53 µM
HS 578T breast
  TGI: 44.6 µM
UACC-257 melanoma
  TGI: > 100 µM
786-0 renal
  TGI: > 100 µM
MCF7 breast
  TGI: > 100 µM
SNB-19 CNS
  TGI: > 100 µM
HT29 colon
  TGI: > 100 µM
KM12 colon
  TGI: > 100 µM
SW-620 colon
  TGI: > 100 µM
DU-145 prostate
  TGI: > 100 µM
U251 CNS
  TGI: > 100 µM
UACC-62 melanoma
  TGI: > 100 µM
A549 NSCLC
  TGI: > 100 µM
SR leukemia
  TGI: > 100 µM
SF-539 CNS
  TGI: > 100 µM
